In brackets after ≈: the same amount, converted by molar mass.
What was measured:
Test in all cases: in vitro antibacterial evaluation, MIC by broth dilution
Format in all cases: cell-based
Escherichia coli = details: 18 hours at 35° C.
Outline: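 Broth dilution MIC per NCCLS M7-A2 in Mueller-Hinton II medium, inoculum 5×10^5 CFU/mL, antibiotic range 64-0.06 μg/mL. MIC taken as lowest concentration inhibiting growth.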

Streptococcus sp. = test system: Streptococcus sp.
Outline: (§1)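 MIC = lowest antibiotic concentration preventing visible growth; inoculum 5×10^5 CFU/mL; drug range 64-0.06 μg/mL; Muller-Hinton II […]; NCCLS M7-A2 guidance.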

Staphylococcus sp. = details: broth dilution, 18 hours at 35° C.; for MIC Staphylococcus aureus (ATCC 29213): strain ATCC 29213; for MIC Staphylococcus aureus (GC 1131): strain GC 1131; for MIC Staphylococcus aureus (GC 3051): strain GC 3051; for MIC Staphylococcus aureus (GC 3053): strain GC 3053; for MIC Staphylococcus aureus (GC 4541): strain GC 4541; for MIC Staphylococcus aureus (GC 4542): strain GC 4542; for MIC Staphylococcus aureus (GC 4544): strain GC 4544; for MIC Staphylococcus aureus (GC 4545): strain GC 4545
Outline: as §1

Enterococcus sp. = test system: Enterococcus sp.
Outline: as §1

[1] = broth dilution, 18 hours at 35° C.

`CC(c1ccccc1)C1NC(=O)CNC(=O)C(CO)NC(=O)C(C(O)C2CNC(=N)N2C2OC(CO)C(O)C(O)C2O)NC(=O)C(C(O)C2CNC(=N)N2)NC(=O)C(Cc2ccc3oc(=O)[nH]c3c2)NC1=O` (stereo not drawn) [Example 22, Cyclo[3-(2,3-dihydro-2-oxo-1,3-benzoxazol-5-yl)alanyl-3-(2-iminoimidazolidin-4-yl)seryl-3-(3-hexopyranosyl-2-iminoimidazolidin-4-yl)serylserylglycyl-β-methylphenylalanyl]] was tested, and the “MIC Escherichia coli (ATCC 25922)” value (Escherichia coli; strain ATCC 25922, broth dilution) was >128 µg/mL, the “MIC Escherichia coli (GC 4559)” value (Escherichia coli; strain GC 4559, broth dilution) was >128 µg/mL and the “MIC Escherichia coli (GC 4560)” value (Escherichia coli; strain GC 4560, broth dilution) was >128 µg/mL. The “MIC Streptococcus pneumoniae (ATCC 6301)” value (Streptococcus sp.; strain ATCC 6301; broth dilution, 18 hours at 35° C.) was 8 µg/mL (≈ 7.91 µM), the “MIC Streptococcus pneumoniae (GC 1894)” value (Streptococcus sp.; strain GC 1894; broth dilution, 18 hours at 35° C.) was 8 µg/mL (≈ 7.91 µM) and the “MIC Streptococcus pyogenes (GC 4563)” value (Streptococcus sp.; strain GC 4563; broth dilution, 18 hours at 35° C.) was 32 µg/mL (≈ 31.6 µM). The “MIC Streptococcus agalactiae (GC 4564)” value (Streptococcus sp.; strain GC 4564; broth dilution, 18 hours at 35° C.) was 32 µg/mL (≈ 31.6 µM), the “MIC Streptococcus pneumoniae (GC 4565)” value (Streptococcus sp.; strain GC 4565; broth dilution, 18 hours at 35° C.) was 8 µg/mL (≈ 7.91 µM) and the “MIC Staphylococcus aureus (ATCC 29213)” value (Staphylococcus sp.) was >128 µg/mL. For the same molecule, the “MIC Staphylococcus aureus (GC 1131)” value (Staphylococcus sp.) was >128 µg/mL, the “MIC Staphylococcus aureus (GC 3051)” value (Staphylococcus sp.) was >128 µg/mL and the “MIC Staphylococcus aureus (GC 3053)” value (Staphylococcus sp.) was >128 µg/mL. For the same molecule, the “MIC Staphylococcus aureus (GC 4541)” value (Staphylococcus sp.) was >128 µg/mL, the “MIC Staphylococcus aureus (GC 4542)” value (Staphylococcus sp.) was >128 µg/mL and the “MIC Staphylococcus aureus-SMITH (GC 4543)” value (Staphylococcus sp.; strain GC 4543) was >128 µg/mL. The “MIC Staphylococcus aureus (GC 4544)” value (Staphylococcus sp.) was >128 µg/mL, the “MIC Staphylococcus aureus (GC 4545)” value (Staphylococcus sp.) was >128 µg/mL and the “MIC Staphylococcus haemolyticus (GC 4546)” value (Staphylococcus sp.; strain GC 4546) was >128 µg/mL. The “MIC Coagulase Negative Staphylococcus (GC 4547)” value (Staphylococcus sp.; strain GC 4547) was >128 µg/mL, the “MIC Coagulase Negative Staphylococcus (GC 4548)” value (Staphylococcus sp.; strain GC 4548) was 128 µg/mL (≈ 126 µM) and the “MIC Coagulase Negative Staphylococcus (GC 4549)” value (Staphylococcus sp.; strain GC 4549) was 64 µg/mL (≈ 63.2 µM). For the same molecule, the “MIC Coagulase Negative Staphylococcus (GC 4551)” value (Staphylococcus sp.; strain GC 4551) was >128 µg/mL, the “MIC Coagulase Negative Staphylococcus (GC 6257)” value (Staphylococcus sp.; strain GC 6257) was 128 µg/mL (≈ 126 µM) and the “MIC Enterococcus faecalis (ATCC 29212)” value (Enterococcus sp.; strain ATCC 29212; broth dilution, 18 hours at 35° C.) was >128 µg/mL. The “MIC Enterococcus faecalis (GC 2242)” value (Enterococcus sp.; strain GC 2242; broth dilution, 18 hours at 35° C.) was >128 µg/mL, the “MIC Enterococcus faecium (GC 2243)” value (Enterococcus sp.; strain GC 2243; broth dilution, 18 hours at 35° C.) was >128 µg/mL and the “MIC Enterococcus faecalis (GC 2691)” value (Enterococcus sp.; strain GC 2691; broth dilution, 18 hours at 35° C.) was >128 µg/mL. The “MIC Enterococcus faecalis (GC 3059)” value (Enterococcus sp.; strain GC 3059; broth dilution, 18 hours at 35° C.) was >128 µg/mL, the “MIC Enterococcus faecalis (GC 4552)” value (Enterococcus sp.; strain GC 4552; broth dilution, 18 hours at 35° C.) was >128 µg/mL and the “MIC Enterococcus faecalis (GC 4553)” value (Enterococcus sp.; strain GC 4553; broth dilution, 18 hours at 35° C.) was >128 µg/mL. The “MIC Enterococcus faecalis (GC 4554)” value (Enterococcus sp.; strain GC 4554; broth dilution, 18 hours at 35° C.) was >128 µg/mL, the “MIC Enterococcus faecium (GC 4556)” value (Enterococcus sp.; strain GC 4556; broth dilution, 18 hours at 35° C.) was >128 µg/mL and the “MIC Enterococcus faecium (GC 4557)” value (Enterococcus sp.; strain GC 4557; broth dilution, 18 hours at 35° C.) was 64 µg/mL (≈ 63.2 µM). The “MIC Enterococcus avium (GC 4558)” value (Enterococcus sp.; strain GC 4558; broth dilution, 18 hours at 35° C.) was >128 µg/mL and the “MIC Enterococcus faecalis (GC 6189)” value (Enterococcus sp.; strain GC 6189; broth dilution, 18 hours at 35° C.) was >128 µg/mL.

“Tri-N-[(phenylmethoxy)carbonyl]-cyclo[glycl-β-methylphenylalanyltyrosyl-3-(2-iminoimidazolidin-4-yl)seryl-3-(3-hexopyranosyl-2-iminoimidazolidin-4-yl)serylseryl] [Example 89]” was tested, and the “MIC Escherichia coli (ATCC 25922)” value (Escherichia coli) was >64 µg/mL, the “MIC Escherichia coli (GC 4559)” value (Escherichia coli) was >64 µg/mL and the “MIC Escherichia coli (GC 4560)” value (Escherichia coli) was 32 µg/mL. For the same molecule, the “MIC Streptococcus agalactiae (GC 4564)” value (Streptococcus sp.; [1]) was 32 µg/mL, the “MIC Streptococcus pneumoniae (ATCC 6301)” value (Streptococcus sp.; [1]) was 16 µg/mL and the “MIC Streptococcus pneumoniae (GC 1894)” value (Streptococcus sp.; [1]) was 4 µg/mL. The “MIC Streptococcus pneumoniae (GC 4565)” value (Streptococcus sp.; [1]) was 8 µg/mL, the “MIC Streptococcus pyogenes (GC 4563)” value (Streptococcus sp.; [1]) was 32 µg/mL and the “MIC Streptococcus pneumoniae (ATCC 6301)” value (Streptococcus sp.; broth dilution, 18 hours at 35° C.; strain ATCC 6301) was 16 µg/mL. For the same molecule, the “MIC Streptococcus pneumoniae (GC 1894)” value (Streptococcus sp.; broth dilution, 18 hours at 35° C.; strain GC 1894) was 4 µg/mL, the “MIC Streptococcus pyogenes (GC 4563)” value (Streptococcus sp.; broth dilution, 18 hours at 35° C.; strain GC 4563) was 32 µg/mL and the “MIC Streptococcus agalactiae (GC 4564)” value (Streptococcus sp.; broth dilution, 18 hours at 35° C.; strain GC 4564) was 32 µg/mL. The “MIC Streptococcus pneumoniae (GC 4565)” value (Streptococcus sp.; broth dilution, 18 hours at 35° C.; strain GC 4565) was 8 µg/mL, the “MIC Coagulase Negative Staphylococcus (GC 4547)” value (Staphylococcus sp.) was 32 µg/mL and the “MIC Coagulase Negative Staphylococcus (GC 4548)” value (Staphylococcus sp.) was 64 µg/mL. The “MIC Coagulase Negative Staphylococcus (GC 4549)” value (Staphylococcus sp.) was 64 µg/mL, the “MIC Coagulase Negative Staphylococcus (GC 4551)” value (Staphylococcus sp.) was 64 µg/mL and the “MIC Coagulase Negative Staphylococcus (GC 6257)” value (Staphylococcus sp.) was 32 µg/mL. For the same molecule, the “MIC Staphylococcus aureus-SMITH (GC 4543)” value (Staphylococcus sp.) was 64 µg/mL, the “MIC Staphylococcus haemolyticus (GC 4546)” value (Staphylococcus sp.) was 32 µg/mL and the “MIC Staphylococcus aureus (ATCC 29213)” value (Staphylococcus sp.) was 64 µg/mL. For the same molecule, the “MIC Staphylococcus aureus (GC 1131)” value (Staphylococcus sp.) was 64 µg/mL, the “MIC Staphylococcus aureus (GC 3051)” value (Staphylococcus sp.) was 64 µg/mL and the “MIC Staphylococcus aureus (GC 3053)” value (Staphylococcus sp.) was 64 µg/mL. For the same molecule, the “MIC Staphylococcus aureus (GC 4541)” value (Staphylococcus sp.) was 64 µg/mL, the “MIC Staphylococcus aureus (GC 4542)” value (Staphylococcus sp.) was 64 µg/mL and the “MIC Staphylococcus aureus-SMITH (GC 4543)” value (Staphylococcus sp.; strain GC 4543) was 64 µg/mL. For the same molecule, the “MIC Staphylococcus aureus (GC 4544)” value (Staphylococcus sp.) was 64 µg/mL, the “MIC Staphylococcus aureus (GC 4545)” value (Staphylococcus sp.) was 64 µg/mL and the “MIC Staphylococcus haemolyticus (GC 4546)” value (Staphylococcus sp.; strain GC 4546) was 32 µg/mL. The “MIC Coagulase Negative Staphylococcus (GC 4547)” value (Staphylococcus sp.; strain GC 4547) was 32 µg/mL, the “MIC Coagulase Negative Staphylococcus (GC 4548)” value (Staphylococcus sp.; strain GC 4548) was 64 µg/mL and the “MIC Coagulase Negative Staphylococcus (GC 4549)” value (Staphylococcus sp.; strain GC 4549) was 64 µg/mL. The “MIC Coagulase Negative Staphylococcus (GC 4551)” value (Staphylococcus sp.; strain GC 4551) was 64 µg/mL, the “MIC Coagulase Negative Staphylococcus (GC 6257)” value (Staphylococcus sp.; strain GC 6257) was 32 µg/mL and the “MIC Enterococcus avium (GC 4558)” value (Enterococcus sp.; Enterococcus avium (GC 4558); broth dilution, 18 hours at 35° C.) was 32 µg/mL. For the same molecule, the “MIC Enterococcus faecalis (ATCC 29212)” value (Enterococcus sp.; Enterococcus faecalis (ATCC 29212); broth dilution, 18 hours at 35° C.) was 64 µg/mL, the “MIC Enterococcus faecalis (GC 4552)” value (Enterococcus sp.; Enterococcus faecalis (GC 4552); broth dilution, 18 hours at 35° C.) was 64 µg/mL and the “MIC Enterococcus faecalis (GC 4553)” value (Enterococcus sp.; Enterococcus faecalis (GC 4553); broth dilution, 18 hours at 35° C.) was 64 µg/mL. For the same molecule, the “MIC Enterococcus faecalis (GC 4554)” value (Enterococcus sp.; Enterococcus faecalis (GC 4554); broth dilution, 18 hours at 35° C.) was 64 µg/mL, the “MIC Enterococcus faecalis (GC 6189)” value (Enterococcus sp.; Enterococcus faecalis (GC 6189); broth dilution, 18 hours at 35° C.) was 64 µg/mL and the “MIC Enterococcus faecium (GC 2243)” value (Enterococcus sp.; Enterococcus faecium (GC 2243); broth dilution, 18 hours at 35° C.) was 64 µg/mL. The “MIC Enterococcus faecium (GC 4556)” value (Enterococcus sp.; Enterococcus faecium (GC 4556); broth dilution, 18 hours at 35° C.) was 64 µg/mL, the “MIC Enterococcus faecium (GC 4557)” value (Enterococcus sp.; Enterococcus faecium (GC 4557); broth dilution, 18 hours at 35° C.) was 32 µg/mL and the “MIC Enterococcus avium (GC 4558)” value (Enterococcus sp.; [1]) was 32 µg/mL. The “MIC Enterococcus faecalis (ATCC 29212)” value (Enterococcus sp.; [1]) was 64 µg/mL, the “MIC Enterococcus faecalis (GC 2242)” value (Enterococcus sp.; [1]) was 64 µg/mL and the “MIC Enterococcus faecalis (GC 2691)” value (Enterococcus sp.; [1]) was 64 µg/mL. The “MIC Enterococcus faecalis (GC 3059)” value (Enterococcus sp.; [1]) was 64 µg/mL, the “MIC Enterococcus faecalis (GC 4552)” value (Enterococcus sp.; [1]) was 64 µg/mL and the “MIC Enterococcus faecalis (GC 4553)” value (Enterococcus sp.; [1]) was 64 µg/mL. The “MIC Enterococcus faecalis (GC 4554)” value (Enterococcus sp.; [1]) was 64 µg/mL, the “MIC Enterococcus faecalis (GC 6189)” value (Enterococcus sp.; [1]) was 64 µg/mL and the “MIC Enterococcus faecium (GC 2243)” value (Enterococcus sp.; [1]) was 64 µg/mL. The “MIC Enterococcus faecium (GC 4556)” value (Enterococcus sp.; [1]) was 64 µg/mL, the “MIC Enterococcus faecium (GC 4557)” value (Enterococcus sp.; [1]) was 32 µg/mL and the “MIC Enterococcus faecalis (GC 2242)” value (Enterococcus sp.; broth dilution, 18 hours at 35° C.; strain GC 2242) was 64 µg/mL. The “MIC Enterococcus faecalis (GC 2691)” value (Enterococcus sp.; broth dilution, 18 hours at 35° C.; strain GC 2691) was 64 µg/mL and the “MIC Enterococcus faecalis (GC 3059)” value (Enterococcus sp.; broth dilution, 18 hours at 35° C.; strain GC 3059) was 64 µg/mL.

Reference: patent US6914045B2, “Glycopeptide antibiotics” (Wyeth Holdings Corporation, priority 2001, dated 2005)
